Data on three compounds can be found in patent publication US8318792B2, “Therapeutic agent for amyotrophic lateral sclerosis” (Nippon Medical School Foundation, priority 2006, dated 2012).

One assay has as its system G1H-G93A transgenic mice. Kind of assay: Clinical symptomatological evaluation (day of onset, survival period, disease period, stage periods). Type of assay: in vivo, mouse. On the procedure: 1) The procedure of concentration adjustment, and the amount and the procedure of administration of the compound (a) were as described below. As a base, 0.5% methylcellulose is prepared. 5 mg of the compound (a) is pulverized in an agate mortar, and then a small amount of 0.5% methylcellulose is added to form a complete suspension. Subsequently, a small amount of 0.5% methylcellulose is added gradually, so that finally 5 mg of the compound (a) is suspended in 10 mL of 0.5% methylcellulose. A sample of 5 mg of compound (a)/10 mL of 0.5% methylcellulose (5 mg/10 mL) was prepared by the above-described procedure, and thus the compound (a) was orally administered once a day in a dose of 5 mg per kg of the mouse body weight (5 mg/kg).
As the experimental animal, male transgenic mice over-expressing a high copy number (25 copies) of mutated human SOD1 gene with a G93A point mutation, i.e., B6SJL-TgN [SOD1-G93A]1Gur (G1H-G93A transgenic mice, JR2726; Hemizygote) (Gurney M E, et al., Science, 264, 1772-1775, 1994), were purchased from Jackson Laboratory (Bar Harbor, USA) and used. At the same time, wild-type male mice from the same litter, B6SJL-TgN[SOD1-G93A]1Gur (Wild-type), were also purchased from Jackson Laboratory and used.
The mice were subjected to a clinical symptomatological evaluation everyday. The clinical symptomatological evaluation was performed from one week after the arrival from Jackson Laboratory. […] The day of onset, the survival period and the disease period were indicated by the number of days. In regard to the indication of the number of days of the disease period, one day (one disease day) corresponds to within 24 hours from the onset (the “onset” is determined by the observation of the clinical symptomatological evaluation stage 1), and two days (two disease days) corresponds to more than 24 hours after and within 48 hours from the onset. Subsequent disease days after the onset were determined in the same manner.
The mice were divided into seven experimental groups, to which a placebo, the compound (a), compound (b), compound (c) or allopurinol was administered. That is, the seven groups consist of: an experimental group administered with placebo; a treatment experimental group administered with compound (a) before onset; a treatment experimental group administered with compound (a) after onset; a treatment experimental group administered with compound (b) before onset; a treatment experimental group administered with compound (c) before onset; a treatment experimental group administered with compound (c) after onset; and a treatment group administered with allopurinol before onset. Details of the respective groups will be described in the following.
Ten G1H-G93A transgenic mice were used. From the 80th day after birth, 5 mg/kg of the compound (a) was orally administered everyday. […]
Ten G1H-G93A transgenic mice were used. From the 80th day after birth, 5 mg/kg of the compound (b) was orally administered everyday.
Ten G1H-G93A transgenic mice were used. From the 80th day after birth, 5 mg/kg of the compound (c) was orally administered everyday. […]
Ten G1H-G93A transgenic mice were used. From the 80th day after birth, 5 mg/kg of allopurinol was orally administered everyday.
In regard to the results of the clinical symptomatological evaluation, the day of onset, the survival period (days taken to show quadriplegia and to reach the moribund state), the disease period (days taken to show quadriplegia and to reach the moribund state, from the day of onset), and the time periods for the respective stages of the clinical symptomatological evaluation, were indicated by the average±standard deviation. In regard to the results of the exercise tolerance test, the score values of the respective exercise tolerance tests, including the extension reflex test, inclined plane test, footprint test, rotarod test and beam balance test, were indicated by the average±standard deviation. […]

The test system of assay [1] is neurotoxin in cerebrospinal fluid from ALS patients. Particulars: in vitro; Non-Patent Document 3; cited from earlier work.
The test system of assay [2] is transgenic mouse which expresses human mutated SOD1 gene. Particulars: Non-Patent Document 9, cited from earlier work.
[3] abbreviates: 5 mg/kg oral daily from 80th day after birth (before onset), Mann-Whitney's U test, log-rank test.
Setting [4] is: 5 mg/kg oral once a day from 80th day after birth (before onset), average±SD.

Take `Oc1ncnc2[nH]ncc12` [allopurinol, reference compound]: in the assay on G1H-G93A transgenic mice (5 mg/kg oral daily from 80th day after birth (before onset), Mann-Whitney's U test), the “time periods for the respective stages in comparison to placebo group” value is recorded as “not found to have the extended period of respective stages with significant differences”. In the assay with G1H-G93A transgenic mice (setting [3]), the “disease period extending effect in comparison to placebo group” value is on record as “did not lead to the onset delaying effect, survival period extending effect or disease period extending effect”; the “onset delaying effect in comparison to placebo group” value was “did not result in significant delaying of the day of onset”; the “survival period extending effect in comparison to placebo group” value is “did not lead to the onset delaying effect, survival period extending effect or disease period extending effect”. Moreover, in the assay on G1H-G93A transgenic mice (setting [4]), the day of onset came out at 102.2 ± 4.4 days, the disease period is 21.0 ± 3.6 days, the survival period is 122.2 ± 1.3 days and the “time period of clinical symptomatological stage 1” value is on record as 6.8±1.1 days. In the assay with G1H-G93A transgenic mice (setting [4]), the “time period of clinical symptomatological stage 2” value is 5.4±1.3 days, the “time period of clinical symptomatological stage 3” value worked out at 4.4±1.2 days, the “time period of clinical symptomatological stage 4” value was 2.9±0.7 days and the “time period of clinical symptomatological stage 5” value worked out at 1.5±0.5 days. Besides, in assay [1], the “action on the neurotoxin in cerebrospinal fluid from ALS patients” value is “counteract the neurotoxin”.
Regarding `[O-][n+]1cccc(/C(Cl)=N/OC[C@H](O)CN2CCCCC2)c1` [arimoclomol], the “effect on life span in the transgenic mouse” value in assay [2] is recorded as “prolongation of life”. In assay [2] (intraperitoneal administration in an amount of 10 mg/kg), the ALS treating effect entry is on record as “effective”.
For vitamin E, the “action on the neurotoxin in cerebrospinal fluid from ALS patients” value in assay [1] was “counteract the neurotoxin”.
